Reference: patent US11370794B2, “Toll-like receptor antagonist compounds and methods of use” (Dynavax Technologies Corporation, priority 2016, dated 2022)

Biological target: T1, mouse TLR9 (Mus musculus, UniProt Q9EQU3)
T1 construct: Balb/c mice (Charles River); host or cells: Balb/c mice, in vivo
T1 sequence (Q9EQU3 26-1032): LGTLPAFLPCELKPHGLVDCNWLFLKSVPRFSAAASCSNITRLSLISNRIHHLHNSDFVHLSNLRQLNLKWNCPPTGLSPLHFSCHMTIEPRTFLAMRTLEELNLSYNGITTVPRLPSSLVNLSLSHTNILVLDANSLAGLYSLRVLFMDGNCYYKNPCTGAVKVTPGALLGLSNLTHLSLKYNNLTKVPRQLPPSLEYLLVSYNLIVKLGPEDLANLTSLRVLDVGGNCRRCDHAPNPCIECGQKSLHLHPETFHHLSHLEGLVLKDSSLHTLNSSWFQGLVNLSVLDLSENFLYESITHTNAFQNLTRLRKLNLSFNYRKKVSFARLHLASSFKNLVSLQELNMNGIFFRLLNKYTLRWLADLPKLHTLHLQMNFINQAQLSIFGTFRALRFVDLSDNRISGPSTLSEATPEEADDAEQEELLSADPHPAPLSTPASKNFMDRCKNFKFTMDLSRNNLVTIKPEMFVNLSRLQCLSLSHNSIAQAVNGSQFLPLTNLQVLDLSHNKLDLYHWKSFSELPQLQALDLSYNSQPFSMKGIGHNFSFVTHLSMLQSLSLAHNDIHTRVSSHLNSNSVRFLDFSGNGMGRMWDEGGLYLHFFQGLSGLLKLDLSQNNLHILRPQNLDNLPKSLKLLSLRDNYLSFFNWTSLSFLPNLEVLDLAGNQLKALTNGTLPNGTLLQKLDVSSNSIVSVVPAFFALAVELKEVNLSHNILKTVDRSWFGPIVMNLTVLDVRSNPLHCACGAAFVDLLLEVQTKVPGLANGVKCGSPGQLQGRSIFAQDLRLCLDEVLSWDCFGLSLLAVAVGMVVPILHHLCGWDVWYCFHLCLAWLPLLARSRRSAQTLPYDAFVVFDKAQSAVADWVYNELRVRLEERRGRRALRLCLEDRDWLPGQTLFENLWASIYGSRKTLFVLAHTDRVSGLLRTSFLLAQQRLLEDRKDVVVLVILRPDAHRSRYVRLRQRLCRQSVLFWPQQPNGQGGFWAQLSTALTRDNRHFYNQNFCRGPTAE
Assay: Inhibition of mouse TLR9 in mouse acute challenge model (serum IL-12)
Type: in vivo
Conditions: 5 mg/Kg, intravenous or intra-peritoneal, serum IL-12 four hours after CpG DNA agonist
Protocol: Example B4—Inhibition of Mouse TLR9 in Mouse Acute Challenge Model
When administered a CpG-containing DNA oligonucleotide, mice respond in an acute manner with release of cytokines into the peripheral blood within 6 hours. The addition of an inhibitor against TLR9 will attenuate the response to the DNA oligonucleotide agonist, which can be measured through a reduction in serum cytokines.
Balb/c mice (Charles River). TLR9 agonist 1018 ISS, CpG-containing DNA oligonucleotide. Mouse interleukin (IL)-12p40 ELISA kit (BD Pharmingen Cat. No. 551219 and 554476).
Mice were injected by the intravenous or intra-peritoneal routes with test compound at 5 mg/kg. Following injection of test compound, mice were injected with a TLR9 agonist (a CpG-containing DNA oligonucleotide) by the intra-peritoneal route to a final dose of approximately 2.5 mg/kg. Four hours following administration of the DNA oligonucleotide, blood was collected and processed to serum. The serum was tested for the presence of IL-12 using an ELISA kit. The amount of IL-12 produced is a reflection of the amount of TLR9-dependent receptor activity.

Compound: Cc1ccc(-n2nc3c(N4CCC(C(=O)NCCCN(C)C)CC4)nnc(C)c3c2C)cc1 [Compound No. 5, 1-(3,4-dimethyl-2-(p-tolyl)-2H-pyrazolo[3,4-d]pyridazin-7-yl)-N-(3-(dimethylamino)propyl)piperidine-4-carboxamide]
- inhibition of TLR9 activity in mice (FIG. 1): inhibition of TLR9 activity
